The nature of this assay: LPO-CC Kamiya Bioscience kit anti-oxidant efficacy assay (methylene blue, optical density at 674 nm). To be noted: simple composition containing 1.0% by weight of active; compared with 1.0% vitamin E; FIG. 1; lower optical density at 674 nm = better efficacy. In kind it is biochemical.

Description: Reaction processes in the kit used can be summarized as follows. Cumene hydroperoxide (CHO) is combined with an enzyme mixture of ascorbic oxidase and lipoprotein lipase in order to produce lipid peroxide. Samples and standards are then combined with a second reagent containing methyl carbamate (MCDP) and hemoglobin. In the presence of hemoglobin, lipid peroxides are converted to lipid alcohols which in turn convert the MCDP to methylene blue that can be read at 674 nm. This translates to decreased color intensity which is measured by spectroscopy at 674 nm. […] In other words, the lower the optical density reading the better the anti-oxidant efficacy.

For the compound `O=c1c(O)c(-c2ccc(O)cc2O)oc2cc(O)cc(O)c12` [morin, 2′,3,4′,5,7-pentahydroxyflavone], the anti-oxidative efficacy entry is on record as “anti-oxidative efficacy as good as positive control vitamin E”.

Values taken from patent US20070092454A1, “Oral composition containing morin” (Colgate-Palmolive Company, priority 2005, published 2007).
